According to PMC12040169 (PLOS Biology, 2025):

experiment: in vitro; conditions: human, hela cells, % viability

Point of comparison: `CC(Oc1ccc(Cl)cc1Cl)C(=O)Nc1ccc(N2CCN(C)CC2)c(Cl)c1` (stereo not shown) [CBK268563], viability at 28.5 h, 10 µM 85%. Against it:
- Cc1nc(C)n(CC(=O)N2CCc3sccc3C2c2ccco2)n1 (stereo not shown) [CBK281649] — higher, 98.8%
- CC(C)[C@@H](N)Cn1nnc2ccccc21 [CBK284323] — lower, 82.7%
- CN(C)CCN(Cc1nc2ccccc2[nH]1)Cc1cccs1 [CBK283020] — higher, 85.1%
- CC(C)CNC(=S)NNC(=O)CC(C)O (stereo not shown) [CBK266921] — higher, 93.9%
- O=C(O)C1N(Cc2ccccc2)CCCN1Cc1ccccc1 [CBK265196] — higher, 111%
- C=CCn1c2cc(C)sc2c2cnn(CC(=O)N(C)C)c(=O)c21 [CBK284164] — lower, 83.9%
- O=[N+]([O-])c1ccc(N/N=C/c2cnn(-c3ccccc3)c2)cc1 [CBK018746] — higher, 94%
- Nc1nc(CSCCO)nc(Nc2ccc(F)cc2)n1 [CBK265542] — higher, 98.3%
- Cc1ccc(CNS(=O)(=O)N(C)C)cc1 [CBK091778] — lower, 80.9%
- COc1ccc(OC)c(NS(=O)(=O)c2ccccc2)c1 [CBK099989] — lower, 73%
- O=C(CNc1ccc2ccccc2c1)N/N=C/c1cc2c(cc1[N+](=O)[O-])OCO2 [CBK261126] — lower, 83.1%
- Cc1nsc(NCc2ccccc2CN2CCCC2CO)c1C#N (stereo not shown) [CBK304124] — higher, 88.8%
- COc1cccc(C(=O)NC(=S)Nc2ccc(C(=O)O)c(Cl)c2)c1 [CBK265065] — higher, 103%
- O=C1c2ccccc2C(c2ccc(NC(=O)c3cccc4ccccc34)cc2)(c2ccc(NC(=O)c3cccc4ccccc34)cc2)c2ccccc21 [CBK261162] — higher, 103%
- CCCOc1ccc(Br)cc1/C=N/O [CBK288491] — higher, 110%
- O=C(Nc1ccc2[nH]ccc2c1)c1ccc(Cl)cc1 [CBK159668] — higher, 98.4%
- Fc1ccc(-n2c(C3CC3)n[nH]c2=S)cc1Cl [CBK288364] — higher, 96.7%
- O=C(c1ccco1)N1CCN(c2cc(-c3ccsc3)ncn2)CC1 [CBK037690] — higher, 100%
- CC(=O)Nc1cccc(C(=O)N2CCN(Cc3ccccn3)CC2)c1 [CBK304067] — higher, 86.3%
- O=C(Nc1cccc(F)c1)N1CCC(Cc2cccnc2)CC1 [CBK306369] — higher, 87.3%
- CNC(=O)Nc1ccccc1NC(=O)NC [CBK261401] — higher, 93%
- c1cc(-c2nnn[nH]2)ccc1OCc1nnn[nH]1 [CBK268083] — higher, 93.1%
- COc1cncc(-c2cnc3[nH]c(=O)n([C@H](CO)C(C)C)c3n2)c1 [CBK064977] — higher, 107%
- COc1ccc2c(c1)sc1ncc(C#N)n12 [CBK016716] — higher, 87.9%
- CC(C)(C)c1cn(C[C@H]2CC3CCN2C[C@@H]3C(=O)Nc2nccs2)nn1 (stereo partly shown) [CBK288737] — higher, 87%
- COc1ccc(C)cc1OCCO [CBK001975] — higher, 104%
- CCC(C)(C)c1ccc(S(=O)(=O)N2CCN(CCCOC3CCCCO3)CC2)cc1 (stereo not shown) [CBK063135] — higher, 96.9%
- CCCCN(C)c1c(CC)nc2ccc(C(=O)NCCc3ccccn3)cn12 [CBK145441] — higher, 98.4%
- Cc1csc(C(C)NC(=O)c2cccnc2NCc2ccc3c(c2)OCO3)n1 (stereo not shown) [CBK153425] — higher, 108%
- O=C(COc1ccc(S(=O)(=O)N2CCCCC2)cc1Cl)NCc1ccccn1 [CBK269253] — higher, 89.6%
- O=C(NC(c1ccc(Cl)cc1)c1cccnc1)C1CCN(C(=O)C2CC2)CC1 (stereo not shown) [CBK059686] — higher, 90.4%
- NC(=O)c1c(NC(=O)Cn2cnc([N+](=O)[O-])n2)sc2c1CCCC2 [CBK027935] — higher, 98.6%
- O=C(NCCO)c1cccc(-c2cncc(N3CCN(Cc4ccccn4)CC3)n2)c1 [CBK065784] — higher, 90.1%
- c1ccc(-c2nc3cc4ccccc4cc3[nH]2)nc1 [CBK000130] — lower, 82.5%
- COc1ccc(C(C)C)cc1-c1nc2ncccc2cc1NC(=O)C(C)C [CBK073659] — higher, 87.8%
- CN(C(=O)Cc1ccccc1)c1ccccc1 [CBK012581] — higher, 103%
- CSc1nsc(SCC(=O)N(c2ccccc2)c2ccccc2)n1 [CBK269361] — higher, 95.3%
- N#CC1=C(N)n2c(s/c(=C\c3ccncc3)c2=O)=C(C#N)C1c1ccncc1 (stereo not shown) [CBK262563] — higher, 96%
- COc1ccc(/C=N/NC(=O)Cn2nnnc2N)cc1 [CBK262122] — lower, 84.9%
- CC(C)(C)OC(=O)N1CCC(CNS(=O)(=O)c2cccc3cccnc23)CC1 [CBK086017] — higher, 97.1%
- CN(Cc1ccsc1)C(=O)c1cccc(S(=O)(=O)NCC2CCCO2)c1 (stereo not shown) [CBK304232] — lower, 83.7%
- COc1ccc(CNC(=O)C2CCCN(c3nc4c(-c5ccccc5)csc4c(=O)[nH]3)C2)cc1 (stereo not shown) [CBK215464] — higher, 95.2%
- C#C[C@H]1C[N@@]2CC[C@H]1C[C@@H]2CNC(=O)Nc1ccc(C(C)=O)cc1 [CBK288755] — higher, 114%
- Cc1nccn1CCNC(=O)Cn1cnc2ccccc21 [CBK281983] — higher, 102%
- CCOc1ncccc1NC(=O)N(CC1CCOC1)C1CC1 (stereo not shown) [CBK305077] — higher, 94%
- OC1(c2cccnc2F)CCN(Cc2c(F)cccc2F)CC1 [CBK283149] — higher, 107%
- COc1ccc(CNc2oc(-c3ccccc3)nc2S(=O)(=O)c2ccccc2)cc1 [CBK267669] — higher, 105%
- Cc1ccc(C(C)(C)C)c(OC(=O)c2cnc(C)cn2)c1 [CBK090261] — higher, 96.5%
- CSc1ccc(CN(C)CCN(C)C)cc1 [CBK019349] — higher, 97.9%
- COCCCn1c(=O)[nH]c2ncc(-c3cccc(OC)c3)nc21 [CBK064519] — higher, 108%
- Nc1ncc(-c2ccncc2)nc1-c1cccc2c1oc1ccccc12 [CBK063889] — higher, 102%
- Cc1ccc(NC(=O)CSc2nnc(N)[nH]2)cc1 [CBK034301] — higher, 110%
- O=S1(=O)C=C(c2ccc(Cl)cc2)S(=O)(=O)CC1 [CBK018403] — higher, 86.3%
- Cn1c(N2CC[C@H](O)C2)nc2cc(C(=O)NC[C@@H]3CCCO3)ccc21 [CBK307433] — higher, 109%
- COc1ccc(-n2ncc3c2CCCN(C(=O)C2CCCC2)C3)cc1 [CBK284501] — lower, 78%
- CC(C)(C)NC(=O)CN1CCN(C(=O)CSc2n[nH]c(=O)n2C2CC2)CC1 [CBK295641] — higher, 94.5%
- Cc1cc2ncc3c(n2n1)CC1CCC3N1Cc1ccc(C)o1 (stereo not shown) [CBK284412] — higher, 88.9%
- CC(C)NC(=O)NC[C@H]1C[C@@H]2CC[N@]1C[C@@H]2CN1CCN(c2ncccn2)CC1 [CBK289116] — higher, 89.7%
- Cc1noc(C)c1NC(=O)c1cccn1C [CBK200304] — higher, 101%
- C[C@H](c1ccccc1)n1c(=O)[nH]c2ncc(-c3cccc(C(=O)NCCN(C)C)c3)nc21 [CBK064204] — higher, 96.5%
- COc1ccccc1CC(=O)Nc1ncccc1OCCCC#N [CBK304952] — higher, 91%
- Cc1[nH]c2ccc(C(=O)O)cc2c1CC(=O)O [CBK267080] — higher, 96.3%
- CN(C(=O)CCC(=O)O)c1ccccc1C(=O)O [CBK261429] — higher, 104%
- COc1ccc(-c2nc(Nc3cccc(C(F)(F)F)c3)sc2CC(=O)O)cc1OC [CBK131693] — higher, 97.9%
- CC(=O)c1cc(C(=O)N2CCC(O)(c3cccc(C)c3)CC2)cs1 [CBK282531] — higher, 92.8%
- Cc1ccc(CN(CCN(C)C)Cc2c(C)nn(C(C)C)c2C)o1 [CBK283235] — higher, 100%
- N#Cc1ccc(NCc2ccccc2CN2CCCC2CO)nc1 (stereo not shown) [CBK304055] — higher, 95.8%
- Cc1nn(CC(=O)N2CCCCC2)c(=O)c2cc3sccc3n12 [CBK284040] — higher, 93.6%
- Cc1cc(C)n(CC(C)C(=O)Nc2cccnc2)n1 (stereo not shown) [CBK307573] — higher, 97.5%
- O=C(O)CCc1ccc(S(=O)(=O)Nc2ccc(N3CCCC3=O)cc2)cc1 [CBK295647] — higher, 106%
- Cc1cc(S(=O)(=O)NCc2ccccc2)ccc1OCC(=O)N1CCN(C)CC1 [CBK268274] — higher, 86.4%
- O=C(COc1ccc(I)cc1)N/N=C/c1cccc([N+](=O)[O-])c1 [CBK262211] — higher, 95.2%
- CN1CCCC(NC(=O)Cn2nc(C(F)(F)F)c3c2CCCC3)C1 (stereo not shown) [CBK282548] — higher, 101%
- COc1cc(OC)c(NC(=O)C(C)Oc2ccc(Cl)c(C)c2)cc1Cl (stereo not shown) [CBK269697] — higher, 89.7%
- CCN1CCC[C@@H]1CNC(=O)c1n[nH]c2c1CCC2 [CBK174628] — higher, 106%
- O=C(O)c1ccccc1Nc1c2ccccc2nc2ccccc12 [CBK263921] — higher, 96%
- CN1CCN(c2nccnc2-c2cccnc2)CC1 [CBK036612] — higher, 89.8%
- Cc1noc(C)c1CC(=O)Nc1nc2c(cc1C#N)CCCC2 [CBK306429] — higher, 97.1%
- COC(=O)c1ccc2c(=O)n(CC3CCCO3)c(SC)nc2c1 (stereo not shown) [CBK304535] — higher, 108%
- CC(=O)c1ccc(NC(=O)N[C@H]2CCN3C(=O)[C@@H](Cc4ccccc4)NC(=O)[C@H]23)cc1 [CBK289229] — higher, 85.9%
- CCOC(=O)c1cc(CC)sc1NC(=O)c1cc2ccccc2o1 [CBK267596] — higher, 88.3%
- Cc1nnc(S)n1CC(=O)n1c2c(c3ccccc31)CCCC2 [CBK266244] — higher, 106%
- O=C(NCc1ccccn1)c1cc(-c2ccc(Cl)cc2)[nH]n1 [CBK116549] — higher, 99.5%
- CCNC(=O)Nc1cc2cccnc2nc1-c1ccc2c(c1)OCCCO2 [CBK070695] — higher, 97.1%

same assay, conditions: human, hela cells, % viability, bulk resorufin, single well

Point of comparison: `O=C(Cn1c(=O)oc2cc(Cl)ccc21)N1CCC2(CC1)OCCO2` [CBK304652], viability at 28.5 h, 10 µM 97%. Against it:
- c1ccc(-c2ccc3c(c2)OC2(CCNCC2)O3)cc1 [CBK085501] — higher, 103%
- O=C1NC(=O)N(Cc2ccccc2)C(=O)/C1=C/c1ccc(O)c(O)c1 [CBK278181] — higher, 117%
- CCOC(=O)C1(c2ccccc2)CCN(C(=O)c2ccc3occc3c2)CC1 [CBK132187] — lower, 92.2%
- CSc1cc(C)c2c(c1)COC1(CCN(C(=O)c3ccccc3C(=O)O)CC1)O2 [CBK060843] — lower, 94.1%
- COc1ccc(CN2CCN(Cc3cc(Br)ccc3O)CC2)cc1 [CBK263640] — higher, 99.4%
